In patent publication US20140288188A1, “Process for Stabilizing Bacterial Content of Aqueous Ground Natural Calcium Carbonate and/or Precipitated Calcium Carbonate and/or Dolomite and/or Surface-Reacted Calcium Carbonate-Comprising Mineral Preparations” (priority 2011, published 2014):
Where two headings read alike, the source gives them in different places.

Key:
[1] = test system: rGDA/IT bacteria culture (GDA/CIT/MIT-resistant); assay type: cell-based, Pseudomonas; settings: no BM1, GNCCS, one inoculation
Protocol: (§1) All quoted bacterial counts (Total Viable Count (TVC) values are in cfu/ml) in the Tables herebelow are determined after 48 hours following plate-out and in accordance with the counting method described in “Bestimmung von aeroben mesophilen Keimen”, Schweizerisches Lebensmittelbuch, chapter 56, section 7.01, edition of 1985, revised version of 1988.
BM1 and ethylene diamine (hereafter “EDA”) were introduced into 50 g samples of each of the slurries indicated in Table 1 in the listed amounts (quoted in ppm based on the weight of the aqueous phase in the slurry). The samples were then stored at 30° C. for 72 hours. References were prepared according to the same protocol but in absence of EDA and in absence of EDA and BM1.
The slurry samples were then inoculated with 1 ml of a mixture of rGDA/IT bacteria culture. Each of the samples was incubated at 30° C. for 24 hours. Thereafter, a 1:10 dilution in phosphate buffered saline (PBS) was plated on plate count agar (PCA). These plates were incubated at 30° C. and analysed after 48 hours.
The biocide-resistant calcium carbonate slurry culture rGDA/IT is GDA/CIT/MIT-resistant and was obtained from product storage tanks located at white mineral dispersion (WMD) manufacturing plants that used the related biocide to preserve the products. […]
BM1 and a diamine selected from 1,3-bis(aminomethyl)cyclohexane (hereinafter “AMC”), 1,3-bis(aminomethyl)benzene (hereinafter “AMB”), 1,7-diaminoheptane (hereinafter “DAH”), and 1,8-diamionoocatane (hereinafter “DAO”) were introduced into 50 g samples of each of the slurries indicated in Table 4 in the listed amounts (quoted in ppm based on the weight of the aqueous phase in the slurry). The samples were then stored at 30° C. for 72 hours. References were prepared according to the same protocol but in absence of the respective diamine used and in the absence of the respective diamine and BM1. […]

[2] = test system: rOPP bacteria culture (OPP-resistant); test: Biocidal activity in ground natural calcium carbonate slurry (GNCCS), Total Viable Count after inoculation with rOPP culture; assay type: cell-based, Pseudomonas putida and Pseudomonas stutzeri; settings: one inoculation
Protocol: as §1
OPP, in the form of an aqueous solution having a concentration of 45%, and one of AMC, AMB, DAH, and DAO were introduced into 50 g samples of each of the slurries indicated in Table 6 in the listed amounts (quoted in ppm active content based on the weight of the aqueous phase in the slurry). References were prepared according to the same protocol but in absence of any one of AMC, AMB, DAH, and DAO. A reference was prepared according to the same protocol but in absence of AMC, AMB, DAH, and DAO and in absence of any biocide.
The slurry samples were then inoculated with 1 ml of a mixture of Pseudomonas species containing predominantly Pseudomonas putida and Pseudomonas stutzeri that are resistant to OPP. Each of the samples was incubated at 30° C. for 72 hours. Thereafter, a 1:10 dilution in phosphate buffered saline (PBS) was plated on plate count agar (PCA). These plates were incubated at 30° C. and analysed after […]. […]

Structure (SMILES) | TVC ([1]; diamine 750 ppm alone) | further results
NCc1cccc(CN)c1 [AMB, 1,3-bis(aminomethyl)benzene] | 1 × 10^6 cfu/ml | 
NCCCCCCCN [DAH, 1,7-diaminoheptane] | 1 × 10^6 cfu/ml | 
NCCN [EDA, ethylene diamine] |  | TVC ([1]; EDA 1050 ppm on aqueous phase alone): 1 × 10^6 cfu/ml
NCC1CCCC(CN)C1 (stereo not shown) [AMC, 1,3-bis(aminomethyl)cyclohexane] | 1 × 10^6 cfu/ml | 
NCCCCCCCCN [DAO, 1,8-diamionoocatane] | 1 × 10^6 cfu/ml | TVC ([2]; diamine 750 ppm alone, no OPP): 1 × 10^6 cfu/ml
Oc1ccccc1-c1ccccc1 [OPP, orthophenylphenol, reference compound] |  | TVC ([2]; OPP 250 ppm alone): 1 × 10^6 cfu/ml
